Experimental data as given in patent US9579328B2, “Prostaglandin and vasoconstrictor pharmaceutical compositions and methods of use” (ALLERGAN, INC., priority 2012, dated 2017).
pEC50: −log10 of the molar value. Where two headings read alike, the source gives them in different places.

Tests used:
conjunctiva of patients = test: Phase 3 clinical studies, bimatoprost 0.03%/timolol 0.5% Combination versus bimatoprost monotherapy: conjunctival hyperaemia; type: in vivo, human
Description: Approximately 60% of patients being treated for glaucoma require two or more agents (adjuvant therapy) to control the intraocular pressure. For this reason, combination therapies, in which two pharmaceutically active agents are combined in the same formulation, have been developed to decrease complexity in the treatment regimen, improve patient compliance, and to minimize the exposure to excipients with possible toxicity such as benzalkonium chloride. Currently, the most commonly prescribed adjuvant therapy includes a beta-blocker and a prostaglandin analogue. For this reason, Allergan has formulated bimatoprost 0.03% together with timolol 0.5% (Combination).

[1] = test system: patients with glaucoma or ocular hypertension; settings: cited from earlier work
[2] = test system: conjunctiva of patients with primary open-angle glaucoma; settings: cited from earlier work
[3] = test system: rabbit isolated jugular veins; settings: cited from earlier work
[4] = test system: palpebral conjunctiva of New Zealand White (albino) rabbits; settings: left eye, n = 16, cited from earlier work
[5] = test system: palpebral conjunctiva of Dutch-Belted (pigmented) rabbits; set-up: key: N = Tissues within normal histological limits; settings: left eye, n = 20, cited from earlier work
[6] = Pooled 192024-018T & 021T (3 months), first line
[7] = Pooled 192024-018T & 021T (3 months), second line
[8] = Bimatoprost 0.001% q.i.d. one month
[9] = Bimatoprost 0.01% q.i.d. one month
[10] = Bimatoprost 0.1% q.i.d. one month
[11] = Bimatoprost 0.03% b.i.d. 6 months
[12] = Bimatoprost 0.03% q.d. 6 months
[13] = Bimatoprost 0.1% b.i.d. 6 months

With `CCNC(=O)CCC/C=C\C[C@@H]1[C@@H](/C=C/[C@@H](O)CCc2ccccc2)[C@H](O)C[C@@H]1O` [Bimatoprost, bimatoprost] the “Incidence of Conjunctival hyperaemia Detected on Biomicroscopy, Biomicro ≧ +1” value (shortened to “Incidence … Biomicro ≧ +1”) (conjunctiva of patients; 192024-026T (3 weeks)) was 18.9%, the “Incidence of Conjunctival hyperaemia Reported as a Treatment-Related AE (Rx-rel AE)” value (from here on “Incidence … (Rx-rel AE)”) (conjunctiva of patients; 192024-026T (3 weeks)) was 27.8% and the “Incidence … Biomicro ≧ +1” value (conjunctiva of patients; 192024-504T (3 months)) was 21.1%. For the same compound, the “Incidence … (Rx-rel AE)” value (conjunctiva of patients; 192024-504T (3 months)) was 29.9%, the “Incidence … Biomicro ≧ +1” value (conjunctiva of patients; [6]) was 30.9% and the “Incidence … (Rx-rel AE)” value (conjunctiva of patients; [6]) was 38.5%. For the same compound, the “Incidence … Biomicro ≧ +1” value (conjunctiva of patients; [7]) was 41.5%, the “Incidence … (Rx-rel AE)” value (conjunctiva of patients; [7]) was 43.4% and the “mean laser-flare photometry readings and mean changes from baseline” value ([1]; 1 year, bimatoprost 0.03% once or twice daily, timolol maleate 0.5% twice daily, subset of 310 patients) was “no significant differences among the treatment groups”. For the same compound, the safety and tolerability ([1]; study extension to 2 years) was “safe and well-tolerated”, the “eyes with signs of inflammatory cell margination or infiltration” value ([2]; bimatoprost 0.03% q.d. 2 to 4 weeks, eyes with hyperemia (2/9)) was 22% and the “eyes with vascular congestion” value ([2]; bimatoprost 0.03% q.d. 2 to 4 weeks, eyes with hyperemia (7/9)) was 78%. For the same compound, the “eyes that developed conjunctival hyperemia” value ([2]; bimatoprost 0.03% q.d. for 2 to 4 weeks) was “Nine of 13”, the “response in the endothelium-denuded preparation” value ([3]; endothelium-denuded, histamine precontracted, bimatoprost) was “inactive” and the pEC50 ([3]; endothelium-intact jugular veins, 3 μM histamine precontracted, read-out: vasorelaxant response EC50) was 5.40. For the same compound, the “Incidence of minimal-to-mild mononuclear cell infiltration in palpebral conjunctiva, Lower Eyelid” value (shortened to “Incidence … Lower Eyelid”) [4, 8] was 12 number of animals, the “Incidence of minimal-to-mild mononuclear cell infiltration in palpebral conjunctiva, Upper Eyelid” value (“Incidence … Upper Eyelid” below) [4, 8] was 4 number of animals and the “Incidence … Lower Eyelid” value [4, 9] was 13 number of animals. For the same compound, the “Incidence … Upper Eyelid” value [4, 9] was 6 number of animals, the “Incidence … Lower Eyelid” value [4, 10] was 14 number of animals and the “Incidence … Upper Eyelid” value [4, 10] was 8 number of animals. The “Mononuclear cell infiltration in palpebral conjunctiva, Lower Eyelid” value [5, 11] was “N”, the “Mononuclear cell infiltration in palpebral conjunctiva, Upper Eyelid” value [5, 11] was “N” and the “Mononuclear cell infiltration in palpebral conjunctiva, Lower Eyelid” value [5, 12] was “N”. The “Mononuclear cell infiltration in palpebral conjunctiva, Upper Eyelid” value [5, 12] was “N”, the “Mononuclear cell infiltration in palpebral conjunctiva, Lower Eyelid” value [5, 13] was “N” and the “Mononuclear cell infiltration in palpebral conjunctiva, Upper Eyelid” value [5, 13] was “N”.
